Assay results as given in the NIST ThermoML archive (doi:10.1007/s10765-013-1469-0).

Assay: xn = mol fraction of the nth substance listed
Conditions: 101 kPa, Liquid; for viscosity: Concentric cylinders viscometry; for mass density: Vibrating tube method

COCCOCCOCCOCCOC [2,5,8,11,14-pentaoxapentadecane] + CCCCO
Conditions	mass density [kg/m3]	viscosity [mPa·s]
288.15 K, x2 = 0	1015.63	4.341
288.15 K, x2 = 0.1013	1006.51	4.077
288.15 K, x2 = 0.2236	993.986	3.779
288.15 K, x2 = 0.3036	984.642	3.567
288.15 K, x2 = 0.4131	969.983	3.317
288.15 K, x2 = 0.5065	955.349	3.129
288.15 K, x2 = 0.5996	938.288	2.945
288.15 K, x2 = 0.7007	916.154	2.795
288.15 K, x2 = 0.7991	889.873	2.74
288.15 K, x2 = 0.8996	856.379	2.875
293.15 K, x2 = 0	1011	3.834
293.15 K, x2 = 0.1013	1001.91	3.591
293.15 K, x2 = 0.2236	989.415	3.315
293.15 K, x2 = 0.3036	980.1	3.139
293.15 K, x2 = 0.4131	965.493	2.922
293.15 K, x2 = 0.5065	950.916	2.77
293.15 K, x2 = 0.5996	933.921	2.603
293.15 K, x2 = 0.7007	911.881	2.474
293.15 K, x2 = 0.7991	885.715	2.428
293.15 K, x2 = 0.8996	852.384	2.546
298.15 K, x2 = 0	1006.36	3.38
298.15 K, x2 = 0.1013	997.307	3.152
298.15 K, x2 = 0.2236	984.881	2.93
298.15 K, x2 = 0.3036	975.56	2.783
298.15 K, x2 = 0.4131	960.897	2.599
298.15 K, x2 = 0.5065	946.305	2.462
298.15 K, x2 = 0.5996	929.548	2.321
298.15 K, x2 = 0.7007	907.599	2.206
298.15 K, x2 = 0.7991	881.548	2.165
298.15 K, x2 = 0.8996	848.369	2.263
303.15 K, x2 = 0	1001.73	3.004
303.15 K, x2 = 0.1013	992.702	2.814
303.15 K, x2 = 0.2236	980.276	2.62
303.15 K, x2 = 0.3036	971.014	2.488
303.15 K, x2 = 0.4131	956.499	2.328
303.15 K, x2 = 0.5065	942.026	2.208
303.15 K, x2 = 0.5996	925.164	2.087
303.15 K, x2 = 0.7007	903.304	1.987
303.15 K, x2 = 0.7991	877.365	1.945
303.15 K, x2 = 0.8996	844.334	2.015
308.15 K, x2 = 0	997.104	2.691
308.15 K, x2 = 0.1013	988.097	2.525
308.15 K, x2 = 0.2236	975.701	2.357
308.15 K, x2 = 0.3036	966.466	2.241
308.15 K, x2 = 0.4131	951.994	2.1
308.15 K, x2 = 0.5065	937.569	1.991
308.15 K, x2 = 0.5996	920.77	1.885
308.15 K, x2 = 0.7007	898.993	1.796
308.15 K, x2 = 0.7991	873.162	1.757
308.15 K, x2 = 0.8996	840.275	1.807
313.15 K, x2 = 0	992.481	2.426
313.15 K, x2 = 0.1013	983.495	2.278
313.15 K, x2 = 0.2236	971.126	2.134
313.15 K, x2 = 0.3036	961.914	2.034
313.15 K, x2 = 0.4131	947.487	1.905
313.15 K, x2 = 0.5065	933.108	1.812
313.15 K, x2 = 0.5996	916.363	1.712
313.15 K, x2 = 0.7007	894.665	1.631
313.15 K, x2 = 0.7991	868.935	1.592
313.15 K, x2 = 0.8996	836.188	1.628
318.15 K, x2 = 0	987.859	2.199
318.15 K, x2 = 0.1013	978.879	2.074
318.15 K, x2 = 0.2236	966.542	1.942
318.15 K, x2 = 0.3036	957.357	1.853
318.15 K, x2 = 0.4131	942.969	1.738
318.15 K, x2 = 0.5065	928.631	1.653
318.15 K, x2 = 0.5996	911.939	1.562
318.15 K, x2 = 0.7007	890.317	1.488
318.15 K, x2 = 0.7991	864.686	1.45
318.15 K, x2 = 0.8996	832.069	1.47
323.15 K, x2 = 0	983.234	2.006
323.15 K, x2 = 0.1013	974.275	1.892
323.15 K, x2 = 0.2236	961.962	1.777
323.15 K, x2 = 0.3036	952.794	1.698
323.15 K, x2 = 0.4131	938.437	1.592
323.15 K, x2 = 0.5065	924.136	1.515
323.15 K, x2 = 0.5996	907.495	1.432
323.15 K, x2 = 0.7007	885.946	1.362
323.15 K, x2 = 0.7991	860.406	1.325
323.15 K, x2 = 0.8996	827.911	1.334
328.15 K, x2 = 0	978.613	1.838
328.15 K, x2 = 0.1013	969.653	1.736
328.15 K, x2 = 0.2236	957.366	1.633
328.15 K, x2 = 0.3036	948.222	1.558
328.15 K, x2 = 0.4131	933.901	1.465
328.15 K, x2 = 0.5065	919.635	1.394
328.15 K, x2 = 0.5996	903.036	1.318
328.15 K, x2 = 0.7007	881.55	1.254
328.15 K, x2 = 0.7991	856.094	1.213
328.15 K, x2 = 0.8996	823.712	1.209
333.15 K, x2 = 0	973.989	1.691
333.15 K, x2 = 0.1013	965.036	1.612
333.15 K, x2 = 0.2236	952.77	1.516
333.15 K, x2 = 0.3036	943.642	1.448
333.15 K, x2 = 0.4131	929.347	1.359
333.15 K, x2 = 0.5065	915.11	1.289
333.15 K, x2 = 0.5996	898.551	1.223
333.15 K, x2 = 0.7007	877.126	1.161
333.15 K, x2 = 0.7991	851.747	1.119
333.15 K, x2 = 0.8996	819.469	1.104
